Common to all, as to assay type: cell-based
Experiment [1] deals with Mannheimia haemolytica MH 10720 (154, BRD field isolate). In words: MIC, broth-microdilution (CLSI VET01-A4), strain MH 10720. The following applies: Mannheimia haemolytica strain MH 10720, broth-microdilution; unit assumed. The method, boiled down:
(§1)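 Using trays holding a doubling concentration series, the MIC is read as the minimal concentration with no eye-detectable growth.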
For orientation: Dilution methods test growth across graded concentrations, often in twofold steps.

The subject of experiment [2] is Mannheimia haemolytica MH 12587 (1071, BRD field isolate, macrolide-resistance: erm+, E+). In words: MIC, broth-microdilution (CLSI VET01-A4), strain MH 12587. The following applies: Mannheimia haemolytica strain MH 12587, broth-microdilution; unit assumed. In outline: as §1
Experiment [3] has as its system Pasteurella multocida PM 10775 (080130003051, BRD field isolate). In words: MIC, broth-microdilution (CLSI VET01-A4), strain PM 10775. Conditions: Pasteurella multocida strain PM 10775, broth-microdilution; unit assumed. The method, boiled down: as §1
In experiment [4] the test system is Mannheimia haemolytica MH 6357 (M7/2, reference strain, cattle infection strain). The experiment in a line: MIC, broth-microdilution (CLSI VET01-A4), strain MH 6357. Conditions: Mannheimia haemolytica strain MH 6357, broth-microdilution; unit assumed. The method, boiled down: as §1
The test system of experiment [5] is Mannheimia haemolytica MH 6374 (ATCC 33396, reference strain). The experiment in a line: MIC, broth-microdilution (CLSI VET01-A4), strain MH 6374. Conditions: Mannheimia haemolytica strain MH 6374, broth-microdilution; unit assumed. In outline:
as §1

Experiment [6] deals with Mannheimia haemolytica MH 13065 (XB0446-6003.9, BRD field isolate). In words: MIC, broth-microdilution (CLSI VET01-A4), strain MH 13065. Conditions: Mannheimia haemolytica strain MH 13065, broth-microdilution; unit assumed. The method, boiled down: as §1
For experiment [7], the system named is Pasteurella multocida PM 12080 (IV102277-0093, BRD field isolate). In words: MIC, broth-microdilution (CLSI VET01-A4), strain PM 12080. The following applies: Pasteurella multocida strain PM 12080, broth-microdilution; unit assumed. In outline: as §1
The test system of experiment [8] is Mannheimia haemolytica MH 13093 (XB0472-6014.1, BRD field isolate). In words: MIC, broth-microdilution (CLSI VET01-A4), strain MH 13093. Conditions: Mannheimia haemolytica strain MH 13093, broth-microdilution; unit assumed. The method, boiled down:
as §1

For experiment [9], the system named is Pasteurella multocida PM 6391 (ATCC 43137, reference strain). In words: MIC, broth-microdilution (CLSI VET01-A4), strain PM 6391. Conditions: Pasteurella multocida strain PM 6391, broth-microdilution; unit assumed. In outline: as §1
Experiment [10] deals with Pasteurella multocida PM 6267 (P 2225 (L386), reference strain, mouse infection strain). The experiment in a line: MIC, broth-microdilution (CLSI VET01-A4), strain PM 6267. The following applies: Pasteurella multocida strain PM 6267, broth-microdilution; unit assumed. In outline: as §1

Converted amounts (≈) assume the structure as drawn. Where only a bound is given, the exact number is not on record here.

Regarding `CSC(C)(C)[C@H](NC(=O)c1ccc(C#Cc2ccc(CNCc3nccs3)cc2)cc1)C(=O)NO` [Compound 254], the MIC MH 10720 in [1] stood at 0.2 µg/mL (≈ 0.393 µM). The same compound registered an MIC MH 12587 in experiment [2] of 1.6 µg/mL (≈ 3.15 µM). The MIC PM 10775 in experiment [3] was ≤ 0.1 µg/mL. Besides, the MIC MH 6357 in experiment [4] was determined as 0.8 µg/mL (≈ 1.57 µM). The MIC MH 6374 in experiment [5] is 1.6 µg/mL (≈ 3.15 µM). The MIC MH 13065 in [6] worked out at 0.8 µg/mL (≈ 1.57 µM). In experiment [7], the MIC PM 12080 was ≤ 0.1 µg/mL. The compound also displayed an MIC MH 13093 in experiment [8] of 0.8 µg/mL (≈ 1.57 µM). The MIC PM 6391 in [9] is 0.4 µg/mL (≈ 0.786 µM). Moreover, the MIC PM 6267 in [10] is ≤ 0.1 µg/mL.

In turn, `CON=C(C)C(NC(=O)c1ccc(C#Cc2ccc(CNCc3ccncc3)cc2)cc1)C(=O)NO` (centres unmarked) [Compound 415] returned an MIC MH 10720 in [1] of 0.4 µg/mL (≈ 0.824 µM). This compound registered an MIC MH 12587 in experiment [2] of 0.2 µg/mL (≈ 0.412 µM). Also, the MIC PM 10775 in [3] is ≤ 0.1 µg/mL. The same compound returned an MIC MH 6357 in experiment [4] of 0.4 µg/mL (≈ 0.824 µM). The compound further yielded an MIC MH 6374 in experiment [5] of 0.8 µg/mL (≈ 1.65 µM). The same compound showed an MIC MH 13065 in experiment [6] of 0.4 µg/mL (≈ 0.824 µM). The MIC PM 12080 in [7] was ≤ 0.1 µg/mL. In experiment [8], this compound returned an MIC MH 13093 of 0.4 µg/mL (≈ 0.824 µM). Also, in [9], the MIC PM 6391 was ≤ 0.1 µg/mL. For the same compound, the MIC PM 6267 in [10] turned out to be 1.6 µg/mL (≈ 3.3 µM).

In the case of `O=C(N[C@@H](CO)C(=O)NO)c1ccc(C#Cc2ccc([N+](=O)[O-])cc2)cc1` [Compound 375, N-[(1S)-2-(hydroxyamino)-1-(hydroxymethyl)-2-oxo-ethyl]-4-[2-(4-nitrophenyl)ethynyl]benzamide], in [1], the MIC MH 10720 was 0.8 µg/mL (≈ 2.17 µM). This compound also came in with an MIC MH 12587 in [2] of 6.3 µg/mL (≈ 17.1 µM). In addition, the MIC PM 10775 in experiment [3] was ≤ 0.1 µg/mL. In experiment [4], this compound registered an MIC MH 6357 of 1.6 µg/mL (≈ 4.33 µM). Besides, the MIC MH 6374 in experiment [5] is 3.1 µg/mL (≈ 8.39 µM). In experiment [6], this compound came in with an MIC MH 13065 of 3.1 µg/mL (≈ 8.39 µM). The same compound displayed an MIC PM 12080 in experiment [7] of 3.1 µg/mL (≈ 8.39 µM). In [8], this compound showed an MIC MH 13093 of 6.3 µg/mL (≈ 17.1 µM). Moreover, in experiment [9], the MIC PM 6391 turned out to be 1.6 µg/mL (≈ 4.33 µM). The MIC PM 6267 in experiment [10] stood at 0.8 µg/mL (≈ 2.17 µM).

As for `CCCNCc1ccc(C#Cc2ccc(C(=O)N[C@H](C(=O)NO)C(C)=NOC)cc2)cc1` [Compound 387], the MIC MH 10720 in experiment [1] worked out at 3.1 µg/mL (≈ 7.1 µM). Further, in [2], the MIC MH 12587 worked out at 1.6 µg/mL (≈ 3.67 µM). This compound also displayed an MIC PM 10775 in [3] of 1.6 µg/mL (≈ 3.67 µM). The compound also returned an MIC MH 6357 in experiment [4] of 6.3 µg/mL (≈ 14.4 µM). The same compound yielded an MIC MH 6374 in experiment [5] of 6.3 µg/mL (≈ 14.4 µM). Besides, the MIC MH 13065 in [6] came out at 6.3 µg/mL (≈ 14.4 µM). The MIC PM 12080 in [7] was found to be 0.2 µg/mL (≈ 0.458 µM). The MIC MH 13093 in experiment [8] stood at 3.1 µg/mL (≈ 7.1 µM). In experiment [9], this compound gave an MIC PM 6391 of 0.4 µg/mL (≈ 0.916 µM). In addition, the MIC PM 6267 in experiment [10] came out at 25 µg/mL (≈ 57.3 µM).

Take `CSC(C)(C)[C@H](NC(=O)c1ccc(C#Cc2ccc(CNC3CC3)s2)cc1)C(=O)NO` [Compound 300]: the MIC MH 10720 in experiment [1] is ≤ 0.1 µg/mL. Also, the MIC MH 12587 in [2] came out at 0.8 µg/mL (≈ 1.75 µM). Moreover, the MIC PM 10775 in experiment [3] was ≤ 0.1 µg/mL. Further, the MIC MH 6357 in experiment [4] is 0.4 µg/mL (≈ 0.874 µM). The compound further returned an MIC MH 6374 in experiment [5] of 0.8 µg/mL (≈ 1.75 µM). Moreover, the MIC MH 13065 in experiment [6] stood at 0.4 µg/mL (≈ 0.874 µM). Moreover, the MIC PM 12080 in experiment [7] is 0.4 µg/mL (≈ 0.874 µM). The same compound yielded an MIC MH 13093 in [8] of 0.8 µg/mL (≈ 1.75 µM). The MIC PM 6391 in experiment [9] was ≤ 0.1 µg/mL. In experiment [10], this compound showed an MIC PM 6267 of 0.4 µg/mL (≈ 0.874 µM).

In [1], `CC(C)(O)[C@H](NC(=O)c1ccc(C#Cc2ccc(CNCc3ncccn3)s2)cc1)C(=O)NO` [Compound 360] showed an MIC MH 10720 of 0.8 µg/mL (≈ 1.67 µM). Moreover, the MIC MH 12587 in experiment [2] was found to be 6.3 µg/mL (≈ 13.1 µM). Moreover, the MIC PM 10775 in experiment [3] was ≤ 0.1 µg/mL. The same compound showed an MIC MH 6357 in experiment [4] of 0.8 µg/mL (≈ 1.67 µM). The same compound gave an MIC MH 6374 in experiment [5] of 1.6 µg/mL (≈ 3.34 µM). The compound further displayed an MIC MH 13065 in experiment [6] of 1.6 µg/mL (≈ 3.34 µM). Also, the MIC PM 12080 in experiment [7] is 0.4 µg/mL (≈ 0.834 µM). This compound also registered an MIC MH 13093 in [8] of 6.3 µg/mL (≈ 13.1 µM). In addition, the MIC PM 6391 in experiment [9] was found to be 1.6 µg/mL (≈ 3.34 µM). This compound also had an MIC PM 6267 in experiment [10] of 0.4 µg/mL (≈ 0.834 µM).

In the case of `CC[C@H](C)[C@H](NC(=O)c1ccc(C#Cc2ccc(CN3CCCCC3)cc2)cc1)C(=O)NO` [Compound 187], the MIC MH 10720 in experiment [1] was found to be 1.6 µg/mL (≈ 3.57 µM). This compound also returned an MIC MH 12587 in experiment [2] of 12.5 µg/mL (≈ 27.9 µM). Further, the MIC PM 10775 in [3] was ≤ 0.1 µg/mL. In experiment [4], the MIC MH 6357 was 3.1 µg/mL (≈ 6.93 µM). This compound also came in with an MIC MH 6374 in experiment [5] of 12.5 µg/mL (≈ 27.9 µM). The compound further had an MIC MH 13065 in [6] of 6.3 µg/mL (≈ 14.1 µM). Moreover, the MIC PM 12080 in [7] worked out at 0.8 µg/mL (≈ 1.79 µM). The compound further returned an MIC MH 13093 in experiment [8] of 6.3 µg/mL (≈ 14.1 µM). For the same compound, in experiment [9], the MIC PM 6391 stood at 1.6 µg/mL (≈ 3.57 µM). This compound yielded an MIC PM 6267 in experiment [10] of 0.4 µg/mL (≈ 0.894 µM).

The compound `CCNCc1ccc(C#Cc2ccc(C(=O)N[C@H](C(=O)NO)[C@@H](C)CC)cc2)cc1` [Compound 176] displayed an MIC MH 10720 in experiment [1] of 3.1 µg/mL (≈ 7.61 µM). Moreover, in [2], the MIC MH 12587 turned out to be 12.5 µg/mL (≈ 30.7 µM). Further, the MIC PM 10775 in experiment [3] is ≤ 0.1 µg/mL. Moreover, in [4], the MIC MH 6357 was determined as 3.1 µg/mL (≈ 7.61 µM). The same compound returned an MIC MH 6374 in [5] of 6.3 µg/mL (≈ 15.5 µM). In addition, in [6], the MIC MH 13065 is 6.3 µg/mL (≈ 15.5 µM). In addition, the MIC PM 12080 in experiment [7] was 1.6 µg/mL (≈ 3.93 µM). For the same compound, the MIC MH 13093 in experiment [8] is 12.5 µg/mL (≈ 30.7 µM). The same compound displayed an MIC PM 6391 in experiment [9] of 3.1 µg/mL (≈ 7.61 µM). This compound also gave an MIC PM 6267 in [10] of 0.8 µg/mL (≈ 1.96 µM).

The record behind these values is patent US11034650B2, “Compounds useful for treating a Mannheimia haemolytica or Histophilus somni infection” (Intervet Inc., priority 2016, dated 2021).
